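All cell lines were grown in 96-well plates and treated with compound for 48 hours. Here, GI50 denotes the concentration required for 50% inhibition of growth. TGI is the concentration that stops growth completely.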
Tests used:
Test in all cases: NCI anticancer screen, dose series, 48 h
SNB-19 CNS = test system: SNB-19 CNS
KM12 colon = test system: KM12 colon
HCT-116 colon = test system: HCT-116 colon
MOLT-4 leukemia = test system: MOLT-4 leukemia
SK-MEL-28 melanoma = test system: SK-MEL-28 melanoma
CCRF-CEM leukemia = test system: CCRF-CEM leukemia
U251 CNS = test system: U251 CNS
SK-MEL-5 melanoma = test system: SK-MEL-5 melanoma
OVCAR-8 ovarian = test system: OVCAR-8 ovarian
TK-10 renal = test system: TK-10 renal
HS 578T breast = test system: HS 578T breast
HCT-15 colon = test system: HCT-15 colon
SF-268 CNS = test system: SF-268 CNS
MALME-3M melanoma = test system: MALME-3M melanoma
DU-145 prostate = test system: DU-145 prostate
UACC-257 melanoma = test system: UACC-257 melanoma
MDA-MB-231 breast = test system: MDA-MB-231 breast
K-562 leukemia = test system: K-562 leukemia
HL-60(TB) leukemia = test system: HL-60(TB) leukemia
HOP-92 NSCLC = test system: HOP-92 NSCLC
M14 melanoma = test system: M14 melanoma
ACHN renal = test system: ACHN renal
A549 NSCLC = test system: A549 NSCLC
UACC-62 melanoma = test system: UACC-62 melanoma
HOP-62 NSCLC = test system: HOP-62 NSCLC
IGROV1 ovarian = test system: IGROV1 ovarian
A498 renal = test system: A498 renal
CAKI-1 renal = test system: CAKI-1 renal
SW-620 colon = test system: SW-620 colon
NCI/ADR-RES ovarian = test system: NCI/ADR-RES ovarian
RXF 393 renal = test system: RXF 393 renal
NCI-H460 lung = test system: NCI-H460 lung
OVCAR-4 ovarian = test system: OVCAR-4 ovarian
NCI-H522 lung = test system: NCI-H522 lung
SF-295 CNS = test system: SF-295 CNS
MDA-MB-435 = test system: MDA-MB-435
BT-549 breast = test system: BT-549 breast
786-0 renal = test system: 786-0 renal
RPMI-8226 leukemia = test system: RPMI-8226 leukemia
NCI-H226 lung = test system: NCI-H226 lung
COLO 205 colon = test system: COLO 205 colon
SK-MEL-2 melanoma = test system: SK-MEL-2 melanoma
UO-31 renal = test system: UO-31 renal
OVCAR-3 ovarian = test system: OVCAR-3 ovarian
SK-OV-3 ovarian = test system: SK-OV-3 ovarian
SNB-75 CNS = test system: SNB-75 CNS
LOX IMVI melanoma = test system: LOX IMVI melanoma
SN12C renal = test system: SN12C renal
NCI-H23 lung = test system: NCI-H23 lung
SF-539 CNS = test system: SF-539 CNS
HT29 colon = test system: HT29 colon
T-47D breast = test system: T-47D breast
OVCAR-5 ovarian = test system: OVCAR-5 ovarian
PC-3 prostate = test system: PC-3 prostate
HCC-2998 colon = test system: HCC-2998 colon
EKVX NSCLC = test system: EKVX NSCLC

O=C(C(Br)C(Br)c1ccccc1)C(Br)C(Br)c1ccccc1 (configuration not stated)
GI50 (SNB-19 CNS): 3.49 µM
TGI (SNB-19 CNS): 14.9 µM
GI50 (KM12 colon): 2.1 µM
TGI (KM12 colon): 4.27 µM
GI50 (HCT-116 colon): 0.198 µM
TGI (HCT-116 colon): 0.4 µM
GI50 (MOLT-4 leukemia): 0.348 µM
TGI (MOLT-4 leukemia): 1.41 µM
GI50 (SK-MEL-28 melanoma): 1.62 µM
TGI (SK-MEL-28 melanoma): 3.36 µM
GI50 (CCRF-CEM leukemia): 0.236 µM
TGI (CCRF-CEM leukemia): 0.886 µM
GI50 (U251 CNS): 1.89 µM
TGI (U251 CNS): 4.53 µM
GI50 (SK-MEL-5 melanoma): 1.69 µM
TGI (SK-MEL-5 melanoma): 3.51 µM
GI50 (OVCAR-8 ovarian): 0.665 µM
TGI (OVCAR-8 ovarian): 2.22 µM
GI50 (TK-10 renal): 0.311 µM
TGI (TK-10 renal): 1.44 µM
GI50 (HS 578T breast): 2.58 µM
TGI (HS 578T breast): 8.4 µM
GI50 (HCT-15 colon): 0.277 µM
TGI (HCT-15 colon): 0.849 µM
GI50 (SF-268 CNS): 2.26 µM
TGI (SF-268 CNS): 5.62 µM
GI50 (MALME-3M melanoma): 1.4 µM
TGI (MALME-3M melanoma): 3.4 µM
GI50 (DU-145 prostate): 1.46 µM
TGI (DU-145 prostate): 2.91 µM
GI50 (UACC-257 melanoma): 1.37 µM
TGI (UACC-257 melanoma): 2.92 µM
GI50 (MDA-MB-231 breast): 1.31 µM
TGI (MDA-MB-231 breast): 2.83 µM
GI50 (K-562 leukemia): 0.302 µM
TGI (K-562 leukemia): 1.38 µM
GI50 (HL-60(TB) leukemia): 0.694 µM
TGI (HL-60(TB) leukemia): 2.75 µM
GI50 (HOP-92 NSCLC): 1.46 µM
TGI (HOP-92 NSCLC): 3.01 µM
GI50 (M14 melanoma): 1.95 µM
TGI (M14 melanoma): 4.41 µM
GI50 (ACHN renal): 0.253 µM
TGI (ACHN renal): 0.63 µM
GI50 (A549 NSCLC): 2.88 µM
TGI (A549 NSCLC): 10.1 µM
GI50 (UACC-62 melanoma): 1.32 µM
TGI (UACC-62 melanoma): 2.69 µM
GI50 (HOP-62 NSCLC): 3.08 µM
TGI (HOP-62 NSCLC): 8.89 µM
GI50 (IGROV1 ovarian): 1.61 µM
TGI (IGROV1 ovarian): 3.41 µM
GI50 (A498 renal): 1.72 µM
TGI (A498 renal): 4.12 µM
GI50 (CAKI-1 renal): 0.389 µM
TGI (CAKI-1 renal): 1.37 µM
GI50 (SW-620 colon): 0.321 µM
TGI (SW-620 colon): 1.09 µM
GI50 (NCI/ADR-RES ovarian): 2.95 µM
TGI (NCI/ADR-RES ovarian): 13.3 µM
GI50 (RXF 393 renal): 0.527 µM
TGI (RXF 393 renal): 1.77 µM
GI50 (NCI-H460 lung): 2.27 µM
TGI (NCI-H460 lung): 5.3 µM
GI50 (OVCAR-4 ovarian): 1.14 µM
TGI (OVCAR-4 ovarian): 2.52 µM
GI50 (NCI-H522 lung): 0.233 µM
TGI (NCI-H522 lung): 0.61 µM
GI50 (SF-295 CNS): 4.6 µM
TGI (SF-295 CNS): 13.6 µM
GI50 (MDA-MB-435): 1.14 µM
TGI (MDA-MB-435): 3.07 µM
GI50 (BT-549 breast): 1.86 µM
TGI (BT-549 breast): 3.39 µM
GI50 (786-0 renal): 0.828 µM
TGI (786-0 renal): 2.21 µM
GI50 (RPMI-8226 leukemia): 0.325 µM
TGI (RPMI-8226 leukemia): 1.33 µM
GI50 (NCI-H226 lung): 1.74 µM
TGI (NCI-H226 lung): 3.71 µM
GI50 (COLO 205 colon): 1.07 µM
TGI (COLO 205 colon): 2.8 µM
GI50 (SK-MEL-2 melanoma): 1.87 µM
TGI (SK-MEL-2 melanoma): 3.78 µM
GI50 (UO-31 renal): 0.236 µM
TGI (UO-31 renal): 0.846 µM
GI50 (OVCAR-3 ovarian): 0.511 µM
TGI (OVCAR-3 ovarian): 1.67 µM
GI50 (SK-OV-3 ovarian): 4.67 µM
TGI (SK-OV-3 ovarian): 19.3 µM
GI50 (SNB-75 CNS): 1.77 µM
TGI (SNB-75 CNS): 6.14 µM
GI50 (LOX IMVI melanoma): 0.633 µM
TGI (LOX IMVI melanoma): 1.88 µM
GI50 (SN12C renal): 1.78 µM
TGI (SN12C renal): 3.83 µM
GI50 (NCI-H23 lung): 2.02 µM
TGI (NCI-H23 lung): 4.83 µM
GI50 (SF-539 CNS): 1.66 µM
TGI (SF-539 CNS): 3.19 µM
GI50 (HT29 colon): 0.346 µM
TGI (HT29 colon): 1.2 µM
GI50 (T-47D breast): 0.279 µM
TGI (T-47D breast): 1.42 µM
GI50 (OVCAR-5 ovarian): 1.57 µM
TGI (OVCAR-5 ovarian): 2.95 µM
GI50 (PC-3 prostate): 2.03 µM
TGI (PC-3 prostate): 5.4 µM
GI50 (HCC-2998 colon): 1.91 µM
TGI (HCC-2998 colon): 3.52 µM

CCCCSSC(=S)N(CC)CC
GI50 (EKVX NSCLC): > 100 µM
TGI (EKVX NSCLC): > 100 µM
GI50 (SNB-19 CNS): > 100 µM
TGI (SNB-19 CNS): > 100 µM
GI50 (HCT-116 colon): 19 µM
TGI (HCT-116 colon): 37 µM
GI50 (MOLT-4 leukemia): 20.2 µM
TGI (MOLT-4 leukemia): 54.9 µM
GI50 (SK-MEL-28 melanoma): 23.4 µM
TGI (SK-MEL-28 melanoma): 78.3 µM
GI50 (CCRF-CEM leukemia): 18.4 µM
TGI (CCRF-CEM leukemia): > 100 µM
GI50 (U251 CNS): 28.8 µM
TGI (U251 CNS): > 100 µM
GI50 (SK-MEL-5 melanoma): 21 µM
TGI (SK-MEL-5 melanoma): > 100 µM
GI50 (OVCAR-8 ovarian): 34.3 µM
TGI (OVCAR-8 ovarian): > 100 µM
GI50 (TK-10 renal): 41.2 µM
TGI (TK-10 renal): > 100 µM
GI50 (HS 578T breast): 38.6 µM
TGI (HS 578T breast): > 100 µM
GI50 (HCT-15 colon): 73.6 µM
TGI (HCT-15 colon): > 100 µM
GI50 (SF-268 CNS): 41.7 µM
TGI (SF-268 CNS): > 100 µM
GI50 (MALME-3M melanoma): 32.4 µM
TGI (MALME-3M melanoma): > 100 µM
GI50 (DU-145 prostate): 53.9 µM
TGI (DU-145 prostate): > 100 µM
GI50 (UACC-257 melanoma): 79.5 µM
TGI (UACC-257 melanoma): > 100 µM
GI50 (MDA-MB-231 breast): 32.4 µM
TGI (MDA-MB-231 breast): > 100 µM
GI50 (K-562 leukemia): 17.5 µM
TGI (K-562 leukemia): 40.1 µM
GI50 (HL-60(TB) leukemia): 12.4 µM
TGI (HL-60(TB) leukemia): 69.2 µM
GI50 (HOP-92 NSCLC): 26.9 µM
TGI (HOP-92 NSCLC): > 100 µM
GI50 (M14 melanoma): 25.7 µM
TGI (M14 melanoma): 87 µM
GI50 (ACHN renal): 46.9 µM
TGI (ACHN renal): > 100 µM
GI50 (A549 NSCLC): > 100 µM
TGI (A549 NSCLC): > 100 µM
GI50 (UACC-62 melanoma): 34.2 µM
TGI (UACC-62 melanoma): > 100 µM
GI50 (HOP-62 NSCLC): > 100 µM
TGI (HOP-62 NSCLC): > 100 µM
GI50 (A498 renal): > 100 µM
TGI (A498 renal): > 100 µM
GI50 (CAKI-1 renal): 18.3 µM
TGI (CAKI-1 renal): 54.5 µM
GI50 (SW-620 colon): 16.7 µM
TGI (SW-620 colon): 32.9 µM
GI50 (NCI/ADR-RES ovarian): 34.3 µM
TGI (NCI/ADR-RES ovarian): > 100 µM
GI50 (RXF 393 renal): 23.3 µM
TGI (RXF 393 renal): 49.4 µM
GI50 (NCI-H460 lung): 25.4 µM
TGI (NCI-H460 lung): > 100 µM
GI50 (OVCAR-4 ovarian): 16.9 µM
TGI (OVCAR-4 ovarian): 32.3 µM
GI50 (SF-295 CNS): 37.1 µM
TGI (SF-295 CNS): > 100 µM
GI50 (MDA-MB-435): 33.9 µM
TGI (MDA-MB-435): > 100 µM
GI50 (BT-549 breast): 26.1 µM
TGI (BT-549 breast): 75.9 µM
GI50 (786-0 renal): > 100 µM
TGI (786-0 renal): > 100 µM
GI50 (RPMI-8226 leukemia): 17.9 µM
TGI (RPMI-8226 leukemia): 40.1 µM
GI50 (NCI-H226 lung): > 100 µM
TGI (NCI-H226 lung): > 100 µM
GI50 (SK-MEL-2 melanoma): 57.7 µM
TGI (SK-MEL-2 melanoma): > 100 µM
GI50 (UO-31 renal): 20.9 µM
TGI (UO-31 renal): 47.6 µM
GI50 (OVCAR-3 ovarian): 20.4 µM
TGI (OVCAR-3 ovarian): 42.6 µM
GI50 (SK-OV-3 ovarian): > 100 µM
TGI (SK-OV-3 ovarian): > 100 µM
GI50 (SNB-75 CNS): 55.5 µM
TGI (SNB-75 CNS): > 100 µM
GI50 (LOX IMVI melanoma): 20.6 µM
TGI (LOX IMVI melanoma): 48.8 µM
GI50 (SN12C renal): 35.7 µM
TGI (SN12C renal): > 100 µM
GI50 (NCI-H23 lung): > 100 µM
TGI (NCI-H23 lung): > 100 µM
GI50 (SF-539 CNS): 21.1 µM
TGI (SF-539 CNS): 56.5 µM
GI50 (T-47D breast): 90.5 µM
TGI (T-47D breast): > 100 µM
GI50 (OVCAR-5 ovarian): 36.4 µM
TGI (OVCAR-5 ovarian): > 100 µM
GI50 (PC-3 prostate): 34.3 µM
TGI (PC-3 prostate): > 100 µM
GI50 (HCC-2998 colon): > 100 µM
TGI (HCC-2998 colon): > 100 µM

Source: PubChem BioAssay (NCI)
